# Source: ChEMBL document CHEMBL4311992, “Discovery of 3-(((9H-purin-6-yl)amino)methyl)-4,6-dimethylpyridin-2(1H)-one derivatives as novel tubulin polymerization inhibitors for treatment of cancer” (Eur J Med Chem, 2019)
# Experiments:
# [1] = biological target: Proto-oncogene tyrosine-protein kinase Src (Homo sapiens) (UniProt P12931); experiment: Inhibition of recombinant full-length human SRC assessed as residual activity at 10 uM using Cdc2 peptide as substrate measured after 40 mins in presence of [gamma33P]ATP by scintillation counting method
# [2] = biological target: Serine/threonine-protein kinase 10 (Homo sapiens) (UniProt O94804); experiment: Inhibition of recombinant human LOK (1 to 348 residues) assessed as residual activity at 10 uM using RLGRDKYKTLRQIRQ as substrate measured after 40 mins in presence of [gamma33P]ATP by scintillation counting method
# [3] = biological target: CDK7/Cyclin H/MNAT1 (Homo sapiens) (UniProt P51946+P50613+P51948); experiment: Inhibition of recombinant full length human CDK7/cyclin H/MAT1 assessed as residual activity at 10 uM using peptide substrate measured after 40 mins in presence of [gamma33P]ATP by scintillation counting method; format: protein-complex assay
# [4] = system: Tyrosine-protein kinase ABL1 (Homo sapiens), P00519 [M351T]; experiment: Inhibition of recombinant human ABL M351T mutant (27 to end residues) assessed as residual activity at 10 uM using EAIYAAPFAKKK as substrate measured after 40 mins in presence of [gamma33P]ATP by scintillation counting method
# [5] = biological target: PAS domain-containing serine/threonine-protein kinase (Homo sapiens) (UniProt Q96RG2); experiment: Inhibition of recombinant human PASK (995 to end residues) assessed as residual activity at 10 uM using KKLNRTLSFAEPG as substrate measured after 40 mins in presence of [gamma33P]ATP by scintillation counting method
# SW-620 = experiment: Induction of apoptosis in human SW620 cells assessed as necrotic cells at 100 nM measured after 48 hrs by Annexin V-FITC/propidium iodide staining-based flow cytometry (reference value: 2.71%); format: functional
# [6] = biological target: Tyrosine-protein kinase HCK (Homo sapiens) (UniProt P08631); experiment: Inhibition of recombinant human activated HCK (230 to 497 residues) assessed as residual activity at 10 uM using GGMEDIYFEFMGGKKK as substrate measured after 40 mins in presence of [gamma33P]ATP by scintillation counting method
# [7] = system: Mitogen-activated protein kinase 14 (Homo sapiens), Q16539 [T106M]; experiment: Inhibition of recombinant full-length human SAPK2a T106M mutant assessed as residual activity at 10 uM using myelin basic protein as substrate measured after 40 mins in presence of [gamma33P]ATP by scintillation counting method
# SW480 = experiment: Antiproliferative activity against human SW480 cells assessed as reduction in cell viability after 72 hrs by MTT assay; format: functional, cell-based; details: SW480, 72 h
# [8] = biological target: Casein kinase I isoform gamma-2 (Homo sapiens) (UniProt P78368); experiment: Inhibition of recombinant human CK1gamma2 (18 to end residues) assessed as residual activity at 10 uM using KRRRALS(p)VASLPGL as substrate measured after 40 mins in presence of [gamma33P]ATP by scintillation counting method
# [9] = system: Tyrosine-protein kinase ABL1 (Homo sapiens), P00519 [T315I]; experiment: Inhibition of recombinant human ABL T315I mutant (27 to end residues) assessed as residual activity at 10 uM using EAIYAAPFAKKK as substrate measured after 40 mins in presence of [gamma33P]ATP by scintillation counting method
# [10] = biological target: TRAF2 and NCK-interacting protein kinase (Homo sapiens) (UniProt Q9UKE5); experiment: Inhibition of human TNIK (1 to 367 residues) using RLGRDKYKTLRQIRQ as substrate measured after 40 mins in presence of [gamma33P]ATP by scintillation counting method; parameters: scale not given: the % may be the effect or the level left
# [11] = biological target: ALK tyrosine kinase receptor (Homo sapiens) (UniProt Q9UM73); experiment: Inhibition of recombinant human ALK (1058 to end residues) assessed as residual activity at 10 uM using KKKSPGEYVNIEF as substrate measured after 40 mins in presence of [gamma33P]ATP by scintillation counting method
# [12] = biological target: Calcium/calmodulin-dependent protein kinase kinase 1 (Homo sapiens) (UniProt Q8N5S9); experiment: Inhibition of recombinant full-length human CAMKk1 assessed as residual activity at 10 uM using calmodulin as substrate measured after 40 mins in presence of [gamma33P]ATP by scintillation counting method
# [13] = biological target: Hepatocyte growth factor receptor (Homo sapiens) (UniProt P08581); experiment: Inhibition of recombinant human MET A1209G/V1290L mutant (974 to end residues) assessed as residual activity at 10 uM using KKKGQEEEYVFIE as substrate measured after 40 mins in presence of [gamma33P]ATP by scintillation counting method
# [14] = system: Serine/threonine-protein kinase B-raf (Homo sapiens), P15056 [V600E]; experiment: Inhibition of recombinant human BRAF V599E mutant (416 to end residues) assessed as residual activity at 10 uM using myelin basic protein as substrate measured after 40 mins in presence of [gamma33P]ATP by scintillation counting method
# [15] = biological target: CDK4/Cyclin D3 (Homo sapiens) (UniProt P11802+P30281); experiment: Inhibition of recombinant full-length human CDK4/cyclinD3 assessed as residual activity at 10 uM using Rb fragment as substrate measured after 40 mins in presence of [gamma33P]ATP by scintillation counting method; format: protein-complex assay
# [16] = system: Macrophage colony-stimulating factor 1 receptor (Homo sapiens), P07333 [Y969C]; experiment: Inhibition of recombinant human FMS Y969C mutant (538 to end residues) assessed as residual activity at 10 uM using EEEEYEEEEEEYYIIEEEEEEYEEEEEEYYEEEEEEKKKK as substrate measured after 40 mins in presence of [gamma33P]ATP by scintillation counting method
# [17] = biological target: Calcium/calmodulin-dependent protein kinase type 1G (Homo sapiens) (UniProt Q96NX5); experiment: Inhibition of human CaMK1gamma; parameters: scale not given: the % may be the effect or the level left
# [18] = biological target: Cyclin-dependent kinase 14/Cyclin-Y (Homo sapiens) (UniProt O94921+Q8ND76); experiment: Inhibition of human CDK14/cyclinY assessed as residual activity at 10 uM by radiometric method; format: protein-complex assay
# [19] = biological target: Eukaryotic translation initiation factor 2-alpha kinase 3 (Homo sapiens) (UniProt Q9NZJ5); experiment: Inhibition of recombinant human PEK (536 to end residues) assessed as residual activity at 10 uM using RSRSRSRSRSRSRSR as substrate measured after 40 mins in presence of [gamma33P]ATP by scintillation counting method
# [20] = biological target: Dual specificity protein kinase CLK4 (Homo sapiens) (UniProt Q9HAZ1); experiment: Inhibition of recombinant human CLK4 (128 to end residues) assessed as residual activity at 10 uM using YRRAAVPPSPSLSRHSSPHQS(p)EDEEE as substrate measured after 40 mins in presence of [gamma33P]ATP by scintillation counting method
# [21] = biological target: Serine/threonine-protein kinase DCLK2 (Homo sapiens) (UniProt Q8N568); experiment: Inhibition of recombinant human DCAMKL2 (376 to end residues) assessed as residual activity at 10 uM using KKLNRTLSFAEPG as substrate measured after 40 mins in presence of [gamma33P]ATP by scintillation counting method
# Eukaryotic translation initiation factor 2-alpha kinase 3 (Homo sapiens), sequence (Q9NZJ5 whole entry): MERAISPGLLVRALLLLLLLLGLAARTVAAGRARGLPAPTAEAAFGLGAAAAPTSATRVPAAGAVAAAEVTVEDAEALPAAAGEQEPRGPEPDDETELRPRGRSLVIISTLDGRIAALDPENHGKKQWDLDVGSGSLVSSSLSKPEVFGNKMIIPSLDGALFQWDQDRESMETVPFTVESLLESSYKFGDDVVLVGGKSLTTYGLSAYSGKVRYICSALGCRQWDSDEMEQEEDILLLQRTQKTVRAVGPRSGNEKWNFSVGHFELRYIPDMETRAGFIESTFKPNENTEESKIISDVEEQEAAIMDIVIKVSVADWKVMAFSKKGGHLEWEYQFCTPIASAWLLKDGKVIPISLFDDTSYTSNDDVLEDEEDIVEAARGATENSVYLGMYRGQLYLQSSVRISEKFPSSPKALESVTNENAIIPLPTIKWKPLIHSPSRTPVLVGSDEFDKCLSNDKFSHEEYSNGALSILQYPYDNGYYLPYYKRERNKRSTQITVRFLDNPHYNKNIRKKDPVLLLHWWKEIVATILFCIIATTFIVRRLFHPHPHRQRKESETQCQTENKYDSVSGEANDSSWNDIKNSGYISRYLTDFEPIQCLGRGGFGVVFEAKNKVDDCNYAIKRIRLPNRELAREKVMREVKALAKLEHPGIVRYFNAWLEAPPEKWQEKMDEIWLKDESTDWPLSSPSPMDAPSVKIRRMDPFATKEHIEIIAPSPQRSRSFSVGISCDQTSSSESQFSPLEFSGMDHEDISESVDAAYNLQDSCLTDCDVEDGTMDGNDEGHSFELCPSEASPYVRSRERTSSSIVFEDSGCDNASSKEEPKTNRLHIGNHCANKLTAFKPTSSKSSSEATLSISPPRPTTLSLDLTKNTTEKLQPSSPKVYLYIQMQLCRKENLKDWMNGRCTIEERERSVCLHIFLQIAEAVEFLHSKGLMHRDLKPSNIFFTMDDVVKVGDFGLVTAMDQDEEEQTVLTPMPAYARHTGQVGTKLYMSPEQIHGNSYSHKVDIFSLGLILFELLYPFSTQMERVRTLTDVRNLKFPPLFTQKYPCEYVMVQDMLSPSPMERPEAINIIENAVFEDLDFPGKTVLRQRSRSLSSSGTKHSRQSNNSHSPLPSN
# Serine/threonine-protein kinase 10 (Homo sapiens), sequence (O94804 whole entry, looked up, the tested form may be a part): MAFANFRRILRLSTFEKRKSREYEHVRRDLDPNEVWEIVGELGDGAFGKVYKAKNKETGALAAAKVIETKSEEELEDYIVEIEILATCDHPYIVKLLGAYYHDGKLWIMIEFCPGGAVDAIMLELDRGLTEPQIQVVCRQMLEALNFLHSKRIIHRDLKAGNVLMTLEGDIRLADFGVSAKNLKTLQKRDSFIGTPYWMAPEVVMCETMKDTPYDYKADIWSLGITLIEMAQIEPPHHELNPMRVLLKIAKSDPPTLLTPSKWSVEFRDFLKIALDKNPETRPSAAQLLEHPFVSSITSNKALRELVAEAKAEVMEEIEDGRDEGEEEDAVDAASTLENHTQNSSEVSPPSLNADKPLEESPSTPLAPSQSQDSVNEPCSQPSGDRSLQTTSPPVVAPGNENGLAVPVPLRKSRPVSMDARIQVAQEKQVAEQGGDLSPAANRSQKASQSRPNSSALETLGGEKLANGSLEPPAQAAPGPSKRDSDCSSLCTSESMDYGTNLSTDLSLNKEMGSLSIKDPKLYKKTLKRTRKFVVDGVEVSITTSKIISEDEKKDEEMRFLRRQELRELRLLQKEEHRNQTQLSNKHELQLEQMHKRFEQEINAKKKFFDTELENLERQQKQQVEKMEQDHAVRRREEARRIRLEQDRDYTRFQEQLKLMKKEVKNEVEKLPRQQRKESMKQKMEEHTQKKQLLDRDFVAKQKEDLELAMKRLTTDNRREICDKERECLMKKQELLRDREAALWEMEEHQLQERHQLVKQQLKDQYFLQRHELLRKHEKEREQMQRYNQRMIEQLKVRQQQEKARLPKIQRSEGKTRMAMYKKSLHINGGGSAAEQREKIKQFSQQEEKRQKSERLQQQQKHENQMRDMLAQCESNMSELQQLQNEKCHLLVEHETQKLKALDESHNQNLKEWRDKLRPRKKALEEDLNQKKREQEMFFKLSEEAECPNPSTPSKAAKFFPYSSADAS
# Serine/threonine-protein kinase B-raf (Homo sapiens), P15056 [V600E], sequence (P15056 whole entry V600E, the tested form may be a part): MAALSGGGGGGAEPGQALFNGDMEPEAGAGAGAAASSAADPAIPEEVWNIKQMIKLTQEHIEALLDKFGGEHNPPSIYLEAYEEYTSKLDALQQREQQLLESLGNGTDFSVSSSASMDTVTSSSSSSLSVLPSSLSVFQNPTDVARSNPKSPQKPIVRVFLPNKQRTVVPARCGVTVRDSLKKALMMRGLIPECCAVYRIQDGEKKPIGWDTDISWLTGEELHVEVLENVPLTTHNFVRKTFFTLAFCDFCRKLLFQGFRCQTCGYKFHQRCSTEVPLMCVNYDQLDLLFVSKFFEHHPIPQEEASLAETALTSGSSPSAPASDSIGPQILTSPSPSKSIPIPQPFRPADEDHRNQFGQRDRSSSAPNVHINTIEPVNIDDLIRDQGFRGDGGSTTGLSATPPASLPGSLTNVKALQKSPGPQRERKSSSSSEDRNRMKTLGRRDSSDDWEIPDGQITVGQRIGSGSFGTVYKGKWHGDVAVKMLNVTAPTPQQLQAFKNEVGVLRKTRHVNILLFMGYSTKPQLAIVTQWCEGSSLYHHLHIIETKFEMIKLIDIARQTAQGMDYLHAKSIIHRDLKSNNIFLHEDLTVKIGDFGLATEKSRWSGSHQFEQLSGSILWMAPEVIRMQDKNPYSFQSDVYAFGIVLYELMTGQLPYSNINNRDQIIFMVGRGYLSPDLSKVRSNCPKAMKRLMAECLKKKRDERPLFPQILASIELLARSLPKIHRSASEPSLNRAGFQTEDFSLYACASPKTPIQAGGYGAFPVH
# TRAF2 and NCK-interacting protein kinase (Homo sapiens), sequence (Q9UKE5 whole entry, looked up, the tested form may be a part): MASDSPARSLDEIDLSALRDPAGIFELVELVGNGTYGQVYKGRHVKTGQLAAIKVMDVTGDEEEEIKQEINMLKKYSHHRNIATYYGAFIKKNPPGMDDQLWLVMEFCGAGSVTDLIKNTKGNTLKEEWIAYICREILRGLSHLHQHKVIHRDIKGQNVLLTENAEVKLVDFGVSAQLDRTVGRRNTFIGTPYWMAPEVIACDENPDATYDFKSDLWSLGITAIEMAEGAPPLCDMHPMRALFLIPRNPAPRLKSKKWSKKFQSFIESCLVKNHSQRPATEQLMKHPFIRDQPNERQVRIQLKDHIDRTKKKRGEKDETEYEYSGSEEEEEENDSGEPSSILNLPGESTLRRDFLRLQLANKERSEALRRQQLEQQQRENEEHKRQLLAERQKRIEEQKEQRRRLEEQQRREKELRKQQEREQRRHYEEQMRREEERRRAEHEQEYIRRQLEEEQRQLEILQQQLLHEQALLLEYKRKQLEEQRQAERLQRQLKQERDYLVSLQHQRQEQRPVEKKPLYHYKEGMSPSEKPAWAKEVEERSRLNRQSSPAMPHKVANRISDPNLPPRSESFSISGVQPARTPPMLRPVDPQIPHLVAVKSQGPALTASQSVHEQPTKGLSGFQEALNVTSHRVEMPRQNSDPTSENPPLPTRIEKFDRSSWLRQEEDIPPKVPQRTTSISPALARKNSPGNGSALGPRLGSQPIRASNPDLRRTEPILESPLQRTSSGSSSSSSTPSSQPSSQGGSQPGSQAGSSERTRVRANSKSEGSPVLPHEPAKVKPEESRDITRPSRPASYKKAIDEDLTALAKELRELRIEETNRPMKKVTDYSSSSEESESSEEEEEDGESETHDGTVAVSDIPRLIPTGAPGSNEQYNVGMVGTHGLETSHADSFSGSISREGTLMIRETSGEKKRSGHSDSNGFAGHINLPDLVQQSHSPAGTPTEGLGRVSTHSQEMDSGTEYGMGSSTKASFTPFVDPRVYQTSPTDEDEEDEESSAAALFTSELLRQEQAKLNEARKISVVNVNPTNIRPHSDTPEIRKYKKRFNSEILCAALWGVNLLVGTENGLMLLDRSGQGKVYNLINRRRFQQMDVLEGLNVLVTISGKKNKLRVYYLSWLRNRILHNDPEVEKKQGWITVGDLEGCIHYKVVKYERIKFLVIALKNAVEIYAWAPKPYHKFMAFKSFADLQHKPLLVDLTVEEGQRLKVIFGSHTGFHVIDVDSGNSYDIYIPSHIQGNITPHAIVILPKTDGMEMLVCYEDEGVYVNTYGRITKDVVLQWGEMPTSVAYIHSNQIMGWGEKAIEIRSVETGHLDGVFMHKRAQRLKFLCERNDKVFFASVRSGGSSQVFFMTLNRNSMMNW
# Proto-oncogene tyrosine-protein kinase Src (Homo sapiens), sequence (P12931 2-536 limits assumed): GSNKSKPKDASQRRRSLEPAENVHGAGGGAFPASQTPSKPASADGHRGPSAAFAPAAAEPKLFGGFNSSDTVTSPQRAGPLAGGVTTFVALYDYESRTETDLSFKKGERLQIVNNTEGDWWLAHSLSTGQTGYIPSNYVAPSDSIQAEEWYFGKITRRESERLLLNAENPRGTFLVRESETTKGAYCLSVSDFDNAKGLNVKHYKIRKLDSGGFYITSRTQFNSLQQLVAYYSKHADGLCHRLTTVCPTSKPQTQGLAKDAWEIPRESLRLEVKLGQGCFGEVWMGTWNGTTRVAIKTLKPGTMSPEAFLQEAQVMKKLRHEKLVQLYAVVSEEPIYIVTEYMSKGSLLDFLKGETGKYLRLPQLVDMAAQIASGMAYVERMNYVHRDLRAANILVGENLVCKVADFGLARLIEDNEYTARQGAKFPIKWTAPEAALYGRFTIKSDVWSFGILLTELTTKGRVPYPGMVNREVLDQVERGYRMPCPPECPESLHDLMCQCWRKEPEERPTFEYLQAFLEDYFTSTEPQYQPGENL
# Mitogen-activated protein kinase 14 (Homo sapiens), Q16539 [T106M], sequence (Q16539 whole entry T106M): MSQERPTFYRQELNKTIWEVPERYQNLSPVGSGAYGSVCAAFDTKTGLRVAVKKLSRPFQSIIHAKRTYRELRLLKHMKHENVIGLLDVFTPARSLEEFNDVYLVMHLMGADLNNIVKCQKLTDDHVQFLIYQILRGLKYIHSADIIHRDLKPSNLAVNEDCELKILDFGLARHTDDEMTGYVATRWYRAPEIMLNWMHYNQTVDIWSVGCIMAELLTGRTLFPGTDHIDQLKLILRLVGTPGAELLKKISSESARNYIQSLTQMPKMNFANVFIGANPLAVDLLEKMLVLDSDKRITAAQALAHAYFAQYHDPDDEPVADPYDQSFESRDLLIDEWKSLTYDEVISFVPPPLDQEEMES
smiles,measurement,setting,value
Cc1cc(C)c(CNc2nc(Cl)nc3c2ncn3C2CCCC2)c(=O)[nH]1,Activity,[1],130%
same,Activity,[2],91.5%
same,Activity,[3],101%
same,Activity,[4],96.5%
same,Activity,[5],100%
same,Activity,SW-620,6.55%
same,Activity,[6],115%
same,Activity,[7],100%
same,IC50,SW480,64.5 nM
same,Activity,[8],104%
same,Activity,[9],108%
same,Activity,[10],108%
same,Activity,[11],112%
same,Activity,[12],102%
same,Activity,[13],80%
same,Activity,[14],108%
same,Activity,[15],91%
same,Activity,[16],94.5%
same,Activity,[17],126%
same,Activity,[18],96.5%
same,Activity,[19],116%
same,Activity,[20],98.5%
same,Activity,[21],110%
